Experimental data as given in US20100016275A1, “NOVEL COMPOUND 395” (priority 2008, published 2010).
Like-named read-outs stand apart in the source and are kept apart here.

What was measured:
[1] = Measurement of plasma protein binding (PPB) by equilibrium dialysis; format: in vitro ADME, human; details: human, plasma, pH 7.4, human plasma, equilibrium dialysis, 37° C., pH 7.4; read-out: Human plasma protein binding PPB (% free)
Procedure: (§1) Measurement of Plasma Protein Binding (PPB)
(§2) The extent of binding of a drug to plasma proteins is a crucial factor in determining its in vivo potency and pharmacokinetics. The method used for determining the extent of plasma protein binding involves equilibrium dialysis of the compound between plasma and buffer at 37° C. The concentrations of compound in the plasma and buffer are then determined using high pressure liquid chromatography (HPLC) with mass spectroscopy (MS) detection. The dialysis method involves the use of mixtures of up to 10 compounds simultaneously. It has been shown that at the concentrations used in the assay, there is no significant difference in the results when compounds are run singly or in mixtures.
(§3) Membranes (molecular weight cut-off 5000) were first prepared by soaking in the dialysis buffer for a minimum of 1 hour. The dialysis membranes were then mounted into the dialysis cells.
(§4) Stock solutions of compounds in dimethylsulphoxide (DMSO) were prepared. This, and all subsequent liquid handling steps, were normally done using a Tecan liquid handling robot. Mixtures of up to five compounds were used. The concentration of each compound in a mixture was normally 1 mM. The mixtures were chosen such that each mixture contains compounds that all have at least a 5 unit difference in molecular weight from one another.
(§5) Frozen plasma (EDTA anticoagulant) was normally used for the human plasma binding experiment. The pH of the plasma was adjusted to 7.4 using 1 M HCl immediately before use.
(§6) The stock DMSO solution of compounds (7.5 μL) was then added to the dialysis cells along with plasma (750 μl). This was done in duplicate for each mixture. This gave a 1% DMSO in plasma solution with each compound at a concentration of 10 μM (if the stock solution was the standard 1 mM). The dialysis cells were then sealed, secured in a Dianorm rotator unit and equilibrated for 18 hours at 37° C. While the dialysis cells were being equilibrated, the DMSO stock solutions were used for generating optimised HPLC/MS methods for use in the final analysis of the plasma and buffer samples.
(§7) After equilibration, the cells were opened and a Tecan liquid handling robot was used to remove aliquots from the plasma and buffer sides of each of the dialysis cells. Blank plasma was then added to the buffer samples and buffer added to the plasma samples such that each sample was in a matrix of 6-fold diluted plasma. Standards were then prepared from the DMSO stock solutions and blank 6-fold diluted plasma. The concentrations of the four standards were normally 50 nM, 150 nM, 500 nM and 2500 nM.
(§8) The samples and standards were then analysed using HPLC with MS detection, which allows deconvolution of the mixtures of compounds. The HPLC method involved a forward flushing column switching technique that allows direct injection of the diluted plasma.
(§9) The chromatograms were processed using MassLynx software that automatically i 5 calculates a calibration curve for each compound in a mixture and then interpolates the concentrations of buffer and plasma samples. These concentrations still need corrections for the dilution of the plasma. The percentage bound was calculated from the MassLynx data using the following equation: […]
(§10) The factor of 1.2 in the numerator accounts for the small dilution of the aqueous samples with plasma. The factor of 6 in the denominator serves to correct for the 6-fold dilution of the plasma samples with buffer.
(§11) The % free (100-% bound) for each compound was calculated from the concentration data, and then recorded.

[2] = Human hepatic intrinsic clearance (CLint) assay in human hepatocytes; format: in vitro ADME; details: human, human hepatocytes in suspension, pH 7.4, human hepatocytes
From the text: The hepatic metabolic component of human clearance is predicted from scaled in vitro intrinsic clearance (CLint) data from human hepatocytes (see Chem Biol Interact. 2007, 168(1), 2-15) and from the extent of human blood binding, primarily due to plasma protein binding. The well stirred model of the liver is a model for predicting blood clearance in the liver from intrinsic clearance (CLint) determined using hepatocytes. (see Drug Metab Dispos. 2005, 33(9), 1304-11) The model is usually written as:
Human Hepatic Intrinsic Clearance (CLint) Assay
For the majority of drugs, a large component of their plasma clearance is contributed by hepatic metabolism. Intrinsic clearance (CLint) is a measure of the potential of a compound to undergo metabolism and can be related to hepatic clearance in vivo from a consideration of plasma protein binding and liver blood flow. Therefore, CLint may be used as an index of the relative metabolic stability of compounds within a project and compared with other external probe substrates. Furthermore, the measurement of CLint in vitro within a research project, where hepatic metabolic clearance is known to be an issue, may be a useful means of understanding the different pharmacokinetic behaviour of the compounds in vivo.
This following description outlines a method for estimating intrinsic clearance (CLint) from human hepatocyte incubations using suspension buffer containing no HSA (human serum albumin) and maintaining physiological conditions of pH 7.4.
Hepatocytes were prepared by a two-step in situ collagenase perfusion method of a portion of the human liver, suspended in protein free buffer (see below) and stored on ice, prior to incubation.
This method is based on the procedure of Seglen (Preparation of rat liver cells. I. Effect of Ca^2+ on enzymatic dispersion of isolated, perfused liver. Exptl. Cell Res., 1972, 74, p450 and preparation of isolated rat liver cells. Methods Cell Biol., 1976, 13, p 29) which itself was developed from the one step procedure of Berry and Friend (High-yield preparation of isolated rat liver parenchymal cells. J. Cell Biol., 1969, 43, p 506).
Suspension medium: 2.34 g Na HEPES, 2.0 g HSA fraction V, 0.4 g D-fructose, DMEM (1 L powder equivalent, Sigma; w/1 g.1^−1 glucose, w/Na pyruvate, w/o NaHCO3, w/o phenol red), made up to 1 L with Milli-Q water, pH to 7.4 with 1 M HCl. (Protein free suspension buffer is made omitting the 2.0 g HSA fraction V)
The capsule of a liver which has been perfused with digestion medium was cut open and the cells gently teased out into the medium. The cells were then passed through a mesh (approximately 250 μM) into a beaker containing 50 ml suspension medium. The mesh was rinsed through into the beaker with further suspension buffer to a final volume of 100 ml. The suspension was divided between two plastic 50 mL centrifuge tubes (pre-cooled on ice) and centrifuged at 50×g for 2 min at 4° C. The supernatants were decanted and the pellets re-suspended in protein free suspension buffer to the original volume. The centrifugation step was repeated and each pellet re-suspended in approximately 10 ml protein free suspension buffer. The suspensions were combined and the volume made up to 50 mL with protein free suspension buffer.
An aliquot of cell suspension (0.2 mL) was diluted with 0.2 ml protein free suspension buffer. To the diluted cells was added 0.2 mL trypan blue solution (0.4% w/v) followed by gentle mixing. After 1 min, a pasteur pipette was used to withdraw a sample and fill an Improved Neubauer Counting Chamber by capillary action. The cells were then counted (central square only) using an inverted microscope, viable cells being able to exclude the dye and non-viable cells being stained. The percentage of viable cells in the preparation was calculated thus: […]

human plasma proteins = assay: Measurement of plasma protein binding (PPB) by equilibrium dialysis; format: in vitro ADME; details: human plasma; for Human plasma protein binding PPB (% free): equilibrium dialysis, 37° C., pH 7.4
Procedure: as §1, §2, §3, §4, §5, §6, §7, §8, §9, §10, §11

[3] = protein free suspension buffer, pH 7.4, 37° C., read-out: Human hepatocyte Intrinsic-clearance assay CLint
[4] = unit inferred, read-out: hepatic intrinsic clearance (Clint)

Row | SMILES | fraction unbound at 18 h, 10 µM [1] | hepatocyte CLint at 1 µM [2, 3] | hepatocyte CLint at 1 µM [2, 4] | Human plasma protein binding PPB (% free) (human plasma proteins) | free fraction in human plasma (in words) (human plasma proteins)
1 | Cc1cccc(CSc2nc(N[C@H](C)CO)cc(NS(C)(=O)=O)n2)c1F [Example 39] | 0.01 | 5.1 µL/min/1e6 cells |  |  | 
2 | CS(=O)(=O)Nc1cc(NC(CO)CO)nc(SCc2ccccc2)n1 [Example 21] |  | 2.3 µL/min/1e6 cells | 2.3 µL/min/1e6 cells |  | 
3 | Cc1ccc(CSc2nc(N[C@H](C)CO)cc(NS(=O)(=O)N3CCC3)n2)c(F)c1C [Example 42] |  |  |  | <0.2 % free | 
4 | Cc1cccc(CSc2nc(N[C@H](C)CO)cc(NS(=O)(=O)N3CCC3)n2)c1F [Example 40] | < 0.002 | 9 µL/min/1e6 cells |  |  | 
5 | C[C@@H](Nc1cc(NS(=O)(=O)N2CCC2)nc(SCc2cccc(F)c2F)n1)[C@@H](O)CO [Example 1, N-(2-[(2,3-difluorobenzyl)thio]-6-{[(1R,2R)-2,3-dihydroxy-1-methylpropyl]amino}pyrimidin-4-yl)azetidine-1-sulfonamide] | 0.019 | 2.1 µL/min/1e6 cells | 2.1 µL/min/1e6 cells |  | favourable free fraction in human plasma
6 | Cc1ccc(CSc2nc(N[C@H](C)CO)cc(NS(=O)(=O)N3CCC3)n2)c(F)c1C [Example 41] |  | 12 µL/min/1e6 cells |  | 0.6 % free | 
